Assay results taken from ChEMBL document CHEMBL1149090, “Synthesis of a potent transition-state inhibitor of 5'-deoxy-5'-methylthioadenosine phosphorylase” (J Med Chem, 2004).
Active and inactive are the calls of the source. The calls are words filed in the database; no cut-off is given here.

Key:
MOLT-4 [1] = assay: Tested for inhibition of MOLT-4 cells proliferation in the presence of 3 uM MTA; format: functional, cell-based; settings: Homo sapiens
MOLT-4 [2] = assay: Tested for inhibition of MOLT-4 cells proliferation up to 10 uM; No Inhibition; format: functional, cell-based; settings: Homo sapiens
MOLT-4 [3] = assay: Tested for inhibition of MOLT-4 cells proliferation in the presence of 100 nM methotrexate and 10 uM of the compound; not significant; format: functional, cell-based; settings: Homo sapiens
[4] = target: T1, S-methyl-5'-thioadenosine phosphorylase (Homo sapiens, UniProt Q13126); assay: Inhibitory concentration against Methylthioadenosine phosphorylase
T1 sequence (Q13126 whole entry): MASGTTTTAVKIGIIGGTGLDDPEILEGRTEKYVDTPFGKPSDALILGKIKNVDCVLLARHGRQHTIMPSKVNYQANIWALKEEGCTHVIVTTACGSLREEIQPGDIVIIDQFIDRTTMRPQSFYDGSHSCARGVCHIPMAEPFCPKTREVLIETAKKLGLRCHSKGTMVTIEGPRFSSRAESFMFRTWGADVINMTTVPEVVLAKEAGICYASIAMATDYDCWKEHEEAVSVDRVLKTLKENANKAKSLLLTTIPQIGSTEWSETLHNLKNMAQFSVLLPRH

IC50 (MOLT-4 [1]): 1000 nM | IC50 [4]: 1.2 nM
Compound: CSC[C@H]1N[C@@H](c2c[nH]c3c(N)ncnc23)[C@H](O)[C@@H]1O
inhibition (MOLT-4 [2]): inactive | inhibition (MOLT-4 [3]): inactive
